The values below come from US8268330B2 (priority 2007, dated 2012).

One data set concerns IL-8. As to the kind of experiment: IL-8 secretion after exposure to iron chelators (ELISA). Type of data set: cell-based, human; guinea pig. To be noted: following HIF-1α nuclear translocation; enhanced by PMA differentiation of the human cells. (ELISA stands for enzyme-linked immunosorbent assay.)
The test system of data set [1] is HIF-1α in THP-1 and HL-60 cells and guinea pig alveolar macrophages. As to the kind of experiment: Induction of HIF-1α in myelomonocytic cells and alveolar macrophages exposed to iron chelators in vitro. To be noted: for accumulation of cytoplasmic HIF-1α followed by nuclear translocation in a subset of the cells / concentration for HIF-1α induction effect (molar level): THP-1, HL-60 cells and guinea pig alveolar macrophages. Type of data set: cell-based, human; guinea pig.

Another data set relates to TGFβ1. As to the kind of experiment: TGFβ1 production after exposure to iron chelators (ELISA). Type of data set: cell-based, human; guinea pig. To be noted: following HIF-1α upregulation and nuclear translocation. The procedure:
(§1) Alveolar macrophages were procured from naïve and BCG-vaccinated guinea pigs by lavage of the lungs in situ immediately following euthanasia. The isolated cells were subjected to Percoll gradient centrifugation (BO & Babiuk) to remove contaminating epithelial cells, neutrophils and erythrocytes. The cells were subsequently incubated overnight in chamber slides (Nunc) in RPMI medium with 10% fetal bovine serum (FBS) and antibiotics to allow the cells to adhere. THP-1 and HL60 cells, obtained from the ATCC (Rockville, Md.), were maintained in suspension in RPMI/10% FBS. The various cell types were washed thoroughly in Hank's balanced salt solution (HBSS) before incubation in HBSS without or with mycobactin or desferroxamine at various concentrations and for various length of time (see result section). At the end of the incubation time the spend media were collected and stored at −70° C. for later assay for IL-8 and TNF-α. The cells were then either spotted onto Teflon coated slides for immunolabelling for HIF-1α or HO-1 (see above) or were subjected to differential lysis to procure cytoplasmic and nuclear proteins, respectively. The protein samples were separated on 10% SDS-polyacrylamide gels and blotted onto nitrocellulose membranes. […]
(§2) TNF-α was quantitated using the L929-cytotoxicity assay and TGFβ1 assay was done by ELISA.

The test system of the next data set is TNF-α. As to the kind of experiment: TNF-α production after exposure to iron chelators (L929-cytotoxicity assay). Type of data set: cell-based, human; guinea pig. Conditions: following HIF-1α upregulation and nuclear translocation. The procedure:
as §1, §2

Data set [2] is described as follows: Iron binding capacity by the ferrozine method. To be noted: for iron binding capacity: ferrozine method. Type of data set: physicochemical. The procedure:
Iron saturated mycobactin J was purchased from Allied Monitor (Fayette, Mo.). Iron was removed and mycobactin purified by initially reconstituting the lyophilized solution of crude Fe^3+-mycobactin J complex in CHCl3 and 4N HCl. The suspension was stirred for 30 min. The water phase was separated and 4N HCl was added. After being stirred for 30 min, water phase was removed; this process was conducted three times to provide clear color solution. The CHCl3 phase was dried over Na2SO4, and concentrated in vacuo. Purification by SiO2 (CHCl3:MeOH=20:1) gave Fe^3+-free mycobactin J. The preparation was determined to be greater than 94% pure by NMR spectroscopy. Crude preparations of mycobactin J (50 mgs) yielded 9.8 mg following iron removal and purification. The iron binding capacity of iron saturated and Fe^3+-free preparations were determined by the ferrozine method (Eagle Diagnostics, Desoto, Tex.).

For the compound `CC(=O)N(O)CCCCCNC(=O)CCC(=O)N(O)CCCCCNC(=O)CCC(=O)N(O)CCCCCN` [desferroxamine, reference compound], the IL-8 secretion result with IL-8 is “induction of IL-8 secretion”. For the same compound, in data set [1], the “accumulation of cytoplasmic HIF-1α followed by nuclear translocation in a subset of the cells” value is “induced accumulation of cytoplasmic HIF-1α in a dose-dependent manner” and the “concentration for HIF-1α induction effect (molar level)” value fell in the range of 10 to 100 µM. Moreover, the “induction of TGFβ1 production” value with TGFβ1 is on record as “minimal”. Also, the “induction of TNF-α production” value with TNF-α was “minimal”.

In data set [2], “Fe^3+-free mycobactin J [Fe^3+-free preparation]” gave an iron binding capacity of 66.7 µmol/L.

In data set [2], “Fe^3+-mycobactin J complex [Fe^3+-saturated mycobactin]” had an iron binding capacity of 0 µmol/L.

In the case of mycobactin J, the “iron binding capacity compared with desferrioxamine” value in data set [2] (compared on a molar equivalent) is recorded as “lower iron binding capacity than desferrioxamine”. Moreover, the IL-8 secretion result in the data set on IL-8 is given as “induction of IL-8 secretion”. Also, in data set [1], the “accumulation of cytoplasmic HIF-1α followed by nuclear translocation in a subset of the cells” value is “induced accumulation of cytoplasmic HIF-1α in a dose-dependent manner” and the “concentration for HIF-1α induction effect (molar level)” value lay within 1 to 5 µM. Further, in data set [1] (THP-1 cells in vitro, molar equivalent), the “potency at inducing HIF-1α compared with desferrioxamine” value is “significantly more potent”. The “induction of TGFβ1 production” value in the data set on TGFβ1 is recorded as “minimal”. In the data set on TNF-α, the “induction of TNF-α production” value is “minimal”.
